Assays:
Chenopodiastrum murale [1] = assay: Herbicidal activity against Chenopodium murale assessed as total dry weight at 2.5 kg/ha applied as spray before seed sowing (reference value: 4.1 MT/ha); type: functional
Chenopodiastrum murale [2] = assay: Herbicidal activity against Chenopodium murale assessed as total fresh weight at 2.5 kg/ha applied as spray before seed sowing (reference value: 23.6 MT/ha); type: functional
Cyperus rotundus [3] = assay: Herbicidal activity against Cyperus rotundus assessed as total dry weight at 2.5 kg/ha applied as spray before seed sowing (reference value: 4.1 MT/ha); type: functional
Malva sylvestris [4] = assay: Herbicidal activity against Malva sylvestris assessed as total dry weight at 2.5 kg/ha applied as spray before seed sowing (reference value: 4.1 MT/ha); type: functional
Malva sylvestris [5] = assay: Herbicidal activity against Malva sylvestris assessed as total fresh weight at 2.5 kg/ha applied as spray before seed sowing (reference value: 23.6 MT/ha); type: functional
Cyperus rotundus [6] = assay: Herbicidal activity against Cyperus rotundus assessed as total fresh weight at 2.5 kg/ha applied as spray before seed sowing (reference value: 23.6 MT/ha); type: functional
Allium cepa [7] = assay: Phytotoxicity in Allium cepa (onion) seedling assessed as total fresh weight at 2.5 kg/ha applied as spray before seed sowing (reference value: 7.71 MT/ha); type: organism-based; settings: in vivo, other
Allium cepa [8] = assay: Phytotoxicity in Allium cepa (onion) seedling assessed as total fresh weight at 1.5 kg/ha applied as spray before seed sowing (reference value: 7.71 MT/ha); type: organism-based; settings: in vivo, other
Cyperus rotundus [9] = assay: Herbicidal activity against Cyperus rotundus assessed as total fresh weight at 1.5 kg/ha applied as spray before seed sowing (reference value: 23.6 MT/ha); type: functional; settings: pooled result: one value given for 3 cell lines, strains, targets or settings
Cyperus rotundus [10] = assay: Herbicidal activity against Cyperus rotundus assessed as total dry weight at 1.5 kg/ha applied as spray before seed sowing (reference value: 4.1 MT/ha); type: functional; settings: pooled result: one value given for 3 cell lines, strains, targets or settings
Malva sylvestris [11] = assay: Herbicidal activity against Malva sylvestris assessed as total dry weight at 3.2 kg/ha applied as spray before seed sowing (reference value: 4.1 MT/ha); type: functional
Allium cepa [12] = assay: Phytotoxicity in Allium cepa (onion) seedling assessed as total fresh weight at 3.2 kg/ha applied as spray before seed sowing (reference value: 7.71 MT/ha); type: organism-based; settings: in vivo, other
Malva sylvestris [13] = assay: Herbicidal activity against Malva sylvestris assessed as total fresh weight at 3.2 kg/ha applied as spray before seed sowing (reference value: 23.6 MT/ha); type: functional
Chenopodiastrum murale [14] = assay: Herbicidal activity against Chenopodium murale assessed as total fresh weight at 3.2 kg/ha applied as spray before seed sowing (reference value: 23.6 MT/ha); type: functional
Cyperus rotundus [15] = assay: Herbicidal activity against Cyperus rotundus assessed as total dry weight at 3.2 kg/ha applied as spray before seed sowing (reference value: 4.1 MT/ha); type: functional
Chenopodiastrum murale [16] = assay: Herbicidal activity against Chenopodium murale assessed as total dry weight at 3.2 kg/ha applied as spray before seed sowing (reference value: 4.1 MT/ha); type: functional
Cyperus rotundus [17] = assay: Herbicidal activity against Cyperus rotundus assessed as total fresh weight at 3.2 kg/ha applied as spray before seed sowing (reference value: 23.6 MT/ha); type: functional
Malva sylvestris [18] = assay: Herbicidal activity against Malva sylvestris assessed as total fresh weight at 0.1 kg/ha applied as spray during post-emergence (reference value: 23.6 MT/ha); type: functional
Allium cepa [19] = assay: Phytotoxicity in Allium cepa (onion) seedling assessed as total fresh weight at 0.1 kg/ha applied as spray during postemergence (reference value: 7.71 MT/ha); type: organism-based; settings: in vivo, other
Cyperus rotundus [20] = assay: Herbicidal activity against Cyperus rotundus assessed as total dry weight at 0.1 kg/ha applied as spray during post-emergence (reference value: 4.1 MT/ha); type: functional
Malva sylvestris [21] = assay: Herbicidal activity against Malva sylvestris assessed as total dry weight at 0.1 kg/ha applied as spray during post-emergence (reference value: 4.1 MT/ha); type: functional
Chenopodiastrum murale [22] = assay: Herbicidal activity against Chenopodium murale assessed as total fresh weight at 0.1 kg/ha applied as spray during postemergence (reference value: 23.6 MT/ha); type: functional
Chenopodiastrum murale [23] = assay: Herbicidal activity against Chenopodium murale assessed as total dry weight at 0.1 kg/ha applied as spray during postemergence (reference value: 4.1 MT/ha); type: functional
Cyperus rotundus [24] = assay: Herbicidal activity against Cyperus rotundus assessed as total fresh weight at 0.1 kg/ha applied as spray during post-emergence (reference value: 23.6 MT/ha); type: functional
Cyperus rotundus [25] = assay: Herbicidal activity against Cyperus rotundus assessed as total fresh weight at 0.86 kg/ha applied as spray before seed sowing (reference value: 23.6 MT/ha); type: functional
Malva sylvestris [26] = assay: Herbicidal activity against Malva sylvestris assessed as total dry weight at 0.86 kg/ha applied as spray before seed sowing (reference value: 4.1 MT/ha); type: functional
Malva sylvestris [27] = assay: Herbicidal activity against Malva sylvestris assessed as total fresh weight at 0.86 kg/ha applied as spray before seed sowing (reference value: 23.6 MT/ha); type: functional
Cyperus rotundus [28] = assay: Herbicidal activity against Cyperus rotundus assessed as total dry weight at 0.86 kg/ha applied as spray before seed sowing (reference value: 4.1 MT/ha); type: functional
Allium cepa [29] = assay: Phytotoxicity in Allium cepa (onion) seedling assessed as total fresh weight at 0.86 kg/ha applied as spray before seed sowing (reference value: 7.71 MT/ha); type: organism-based; settings: in vivo, other
Chenopodiastrum murale [30] = assay: Herbicidal activity against Chenopodium murale assessed as total dry weight at 0.86 kg/ha applied as spray before seed sowing (reference value: 4.1 MT/ha); type: functional
Chenopodiastrum murale [31] = assay: Herbicidal activity against Chenopodium murale assessed as total fresh weight at 0.86 kg/ha applied as spray before seed sowing (reference value: 23.6 MT/ha); type: functional

CSc1nc(NC(C)C)nc(NC(C)C)n1 [PROMETRYN]
Activity (Chenopodiastrum murale [1]): 3.81 MT/ha | Activity (Chenopodiastrum murale [2]): 19.8 MT/ha | Activity (Cyperus rotundus [3]): 3.81 MT/ha | Activity (Malva sylvestris [4]): 3.81 MT/ha | Activity (Malva sylvestris [5]): 19.8 MT/ha | Activity (Cyperus rotundus [6]): 19.8 MT/ha | Activity (Allium cepa [7]): 3.67 MT/ha

C#CC(C)(C)NC(=O)c1cc(Cl)cc(Cl)c1 [PRONAMIDE]
Activity (Allium cepa [8]): 6.67 MT/ha | Activity (Cyperus rotundus [9]): 20.5 MT/ha | Activity (Cyperus rotundus [10]): 3.61 MT/ha

Nc1cnn(-c2ccccc2)c(=O)c1Cl [PYRAZON]
Activity (Malva sylvestris [11]): 1.94 MT/ha | Activity (Allium cepa [12]): 6.68 MT/ha | Activity (Malva sylvestris [13]): 9.5 MT/ha | Activity (Chenopodiastrum murale [14]): 9.5 MT/ha | Activity (Cyperus rotundus [15]): 1.94 MT/ha | Activity (Chenopodiastrum murale [16]): 1.94 MT/ha | Activity (Cyperus rotundus [17]): 9.5 MT/ha

CCOC(=O)C(C)Oc1ccc(Oc2cnc3cc(Cl)ccc3n2)cc1 (stereo unspecified) [QUIZALOFOP ETHYL ESTER]
Activity (Malva sylvestris [18]): 10.7 MT/ha | Activity (Allium cepa [19]): 10.11 MT/ha | Activity (Cyperus rotundus [20]): 2.52 MT/ha | Activity (Malva sylvestris [21]): 2.52 MT/ha | Activity (Chenopodiastrum murale [22]): 10.7 MT/ha | Activity (Chenopodiastrum murale [23]): 2.52 MT/ha | Activity (Cyperus rotundus [24]): 10.7 MT/ha

CCCN(CCC)c1c([N+](=O)[O-])cc(C(F)(F)F)cc1[N+](=O)[O-] [TRIFLURALIN]
Activity (Cyperus rotundus [25]): 14.8 MT/ha | Activity (Malva sylvestris [26]): 2.69 MT/ha | Activity (Malva sylvestris [27]): 14.8 MT/ha | Activity (Cyperus rotundus [28]): 2.69 MT/ha | Activity (Allium cepa [29]): 7.04 MT/ha | Activity (Chenopodiastrum murale [30]): 2.69 MT/ha | Activity (Chenopodiastrum murale [31]): 14.8 MT/ha
